Assay [1] deals with T1, human activated blood coagulation factor X (Homo sapiens, UniProt P00742).
T1 construct: purchased Calbiochem
The experiment in a line: Measurement of inhibitory activity for activated blood coagulation factor X (S-2222 chromogenic substrate). Format: biochemical. The conditions noted are these: S-2222 substrate, pH 8.4, 10 minutes at 37° C., absorbance 405 nm. As for the experimental part: Measurement of inhibitory activity for activated blood coagulation factor X
2.5 μL of a dimethylsulfoxide solution of a test compound, 187.5 μL of 100 mM tris-200 mM NaCl buffer (pH 8.4) and 50 μL of 1 mM S-2222 (Daiichi Pure Chemicals) aqueous solution were poured into 96 well microplate. Then 10 μL of 0.6 U/mL human activated blood coagulation factor X (Calbiochem) in gelatin-glycine buffer was added and the mixture was incubated for 10 minutes at 37° C. The reaction was terminated with the addition of 50 μL of 60% acetic acid and absorbance (405 nm) was measured by a microplate reader (SPECTRAmax250, Molecular Devices).
The group with 2.5 μL of the dimethylsulfoxide solution instead of the test compound solution was defined as the control, and the group with 10 μL of the gelatin-glycine buffer solution instead of human activated blood coagulation factor X was defined as the blank. The concentration of a test compound that inhibited the absorbance of control by 50% (IC50) was obtained, and this value was used as the index of inhibitory activity for activated blood coagulation factor X. Results were shown as Table 1.

Assay [2] addresses T2, human thrombin (Homo sapiens, UniProt P00734).
T2 construct: human thrombin (Sigma Chemical Company); purchased Sigma Chemical Company
The experiment in a line: Measurement of inhibitory activity for thrombin (S-2238 chromogenic substrate). The conditions noted are these: S-2238 substrate, pH 8.4, 10 minutes at 37° C., absorbance 405 nm. The assay is classed as biochemical. As for the experimental part:
Measurement of inhibitory activity for thrombin
2.5 μL of a dimethylsulfoxide solution of a test compound, 187.5 μL of 100 mM tris-200 mM NaCl buffer (pH 8.4) and 50 μL of 1 mM S-2238 (Daiichi Pure Chemicals) aqueous solution were poured into 96 well microplate. Then 10 μL of 2.0 U/mL human thrombin (Sigma Chemical Company) in gelatin-glycine buffer was added and the mixture was incubated for 10 minutes at 37° C. The reaction was terminated with the addition of 50 μL of 60% acetic acid and absorbance (405 nm) was measured by a microplate reader (SPECTRAmax250, Molecular Devices).
The group with 2.5 μL of the dimethylsulfoxide solution instead of the test compound solution was defined as the control, and the group with 10 μL of the gelatin-glycine buffer solution instead of human thrombin was defined as the blank. The concentration of a test compound that inhibited the absorbance of control by 50% (IC50) was obtained, and this value was used as the index of inhibitory activity for thrombin.

SMILES strings stand for the structures.

The values below come from patent US20050014787A1, “5-amidino-2-hydroxybenzenesulfonamide derivatives medicinal compoistions containing the same medicinal use thereof and intermediates in the production thereof” (priority 2001, published 2005).

T1 sequence (P00742 235-488 limits assumed): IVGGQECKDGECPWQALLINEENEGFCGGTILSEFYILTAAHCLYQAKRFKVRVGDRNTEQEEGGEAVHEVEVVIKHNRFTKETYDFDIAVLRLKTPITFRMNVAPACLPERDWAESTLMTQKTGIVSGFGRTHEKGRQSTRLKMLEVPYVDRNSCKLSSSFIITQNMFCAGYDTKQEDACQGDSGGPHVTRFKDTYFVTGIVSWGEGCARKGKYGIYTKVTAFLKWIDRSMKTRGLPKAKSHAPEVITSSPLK
T1 sequence (P00742 41-179 partner limits assumed): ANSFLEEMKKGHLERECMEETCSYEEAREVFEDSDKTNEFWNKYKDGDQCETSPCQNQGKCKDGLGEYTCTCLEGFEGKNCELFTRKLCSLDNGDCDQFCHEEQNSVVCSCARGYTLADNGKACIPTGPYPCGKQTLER

Turning to `CC(C)c1ccc(CCN(CC(=O)N2CCOCC2)S(=O)(=O)c2cc(C(=N)N)ccc2O)cc1` [Compound 14, 5-Carbamimidoyl-2-hydroxy-N-[2-(4-isopropylphenyl)ethyl]-N-(2-morpholin-4-yl-2-oxoethyl)benzenesulfonamide], the IC50 came out at 0.051 µM in assay [1] and 27 µM in assay [2].

Take `N=C(N)c1ccc(O)c(S(=O)(=O)NCCc2ccc(-c3ccccc3S(N)(=O)=O)cc2)c1` [Compound 15, 5-Carbamimidoyl-2-hydroxy-N-[2-(2′-sulfamoylbiphenyl-4-yl)-ethyl]benzenesulfnamide]: the IC50 in assay [1] worked out at 0.0038 µM.

As for `CC(C)c1ccc(CCN(C)S(=O)(=O)c2cc(C(=N)N)ccc2O)cc1` [Compound 17, 5-Carbamimidoyl-2-hydroxy-N-[2-(4-isopropylphenyl)ethyl]-N-methylbenzenesulfonamide], the 50% inhibitory concentration (IC50) in assay [1] worked out at 0.16 µM; in assay [2], 26 µM.

A word on the IC50: it is the concentration that inhibits the measured activity by half. Read a high IC50 as weaker potency.
